Results: patent publication US7320863B2 (Albert Einstein College of Medicine of Yeshiva University, priority 1996, dated 2008)

Key:
[1] = target: T1, rat sodium/iodide symporter (Rattus norvegicus, UniProt Q63008)
T1 sequence (Q63008 1-618): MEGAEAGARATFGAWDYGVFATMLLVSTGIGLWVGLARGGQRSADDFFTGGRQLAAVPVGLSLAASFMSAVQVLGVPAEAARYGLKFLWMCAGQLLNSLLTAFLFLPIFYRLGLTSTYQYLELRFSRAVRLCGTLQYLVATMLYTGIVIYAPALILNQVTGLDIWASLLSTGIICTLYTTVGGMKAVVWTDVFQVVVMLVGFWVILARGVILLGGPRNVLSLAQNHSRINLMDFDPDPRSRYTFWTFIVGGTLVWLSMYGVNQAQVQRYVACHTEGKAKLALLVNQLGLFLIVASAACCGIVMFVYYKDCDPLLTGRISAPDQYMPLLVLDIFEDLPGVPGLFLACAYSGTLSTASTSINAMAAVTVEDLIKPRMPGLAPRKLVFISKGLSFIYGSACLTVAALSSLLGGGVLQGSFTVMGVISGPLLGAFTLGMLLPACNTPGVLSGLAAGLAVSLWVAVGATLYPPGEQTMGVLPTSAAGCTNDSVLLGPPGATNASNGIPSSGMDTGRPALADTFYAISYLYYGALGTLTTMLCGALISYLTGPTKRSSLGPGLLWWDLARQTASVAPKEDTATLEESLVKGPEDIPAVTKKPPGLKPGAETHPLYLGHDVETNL
Description: Transcripts were injected into oocytes and oocytes were assayed for perchlorate-sensitive Na^+/I^− symport activity as described in Weiss, et al., supra.
Control assays were carried out in oocytes microinjected with water (lane-1). Na^+-dependence was ascertained by using choline in place of Na^+, and perchlorate sensitivity was tested by conducting assays in the presence of both Na+ and perchlorate.

[2] = target: T1, rat sodium/iodide symporter; assay: Iodide accumulation in COS cells transfected with sodium/iodide symporter cDNA; type: cell-based; set-up: Beginning with Met at position 1, a long open reading frame codes for a protein of 618 amino acids; expressed in transfected cells; host or cells: Xenopus laevis oocytes microinjected with cRNA transcribed in vitro (T7 RNA polymerase) from the cDNA clone in pSPORT; settings: COS cells transfected with symporter cDNA clone, assayed 48 h after transfection
Description: In FIG. 1A oocytes were microinjected with water (lane 1), 50 ng mRNA from FRTL-5 cells (lane 2), or approximately 20 ng cRNA transcripts made in vitro from pools containing the indicated number of cDNA clones (lanes 3-7, numbers without parentheses at bottom of FIG. 1A). […] Inset: Double reciprocal plot. […] Each point represents the average of triplicate determinations+/−SE.
A directional cDNA library was prepared in the PSPORT (BRL) vector from poly A^+ RNA isolated from FRTL-5 cells. cRNAs were synthesized in vitro using T7 RNA polymerase in the presence of m^7 GpppG from pools of cDNA clones. Transcripts were injected into oocytes and oocytes were assayed for perchlorate-sensitive Na^+/I^− symport activity as described in Weiss, et al., supra.

Row | Structure (SMILES) | generated iodide concentration gradient ([1]; 50 μM iodide in transport solution, functional volume 0.5 μl/oocyte) | Na+/I- symport activity in the presence of perchlorate ([1]; assayed in the presence of both Na+ and perchlorate, 45 min) | perchlorate sensitivity of Na+/I- symport activity [2]
1 | I [iodide] | > 30 fold | – | –
2 | [O-][Cl+3]([O-])([O-])O [perchlorate] | – | virtually indistinguishable from background | perchlorate-sensitive
